Measurements from PMC5794198, “Inhibitors of Trypanosoma cruzi Sir2 related protein 1 as potential drugs against Chagas disease” (PLoS Neglected Tropical Diseases, 2018).

Experiments:
[1] = test system: T. cruzi amastigotes; assay: High-content screening assay on intracellular T. cruzi amastigotes; format: cell-based, Trypanosoma cruzi; details: up to a concentration of 2000 μM (2 mM)
Procedure: For the evaluation of the activity against T. cruzi amastigotes, high-content screening (HCS) was designed. In summary, 100 μL of host C2C12 cells (ATCC) were seeded in clear bottom black 96-well plates at a density of 2.5 x 10^4 cells/mL (2.5 × 10^3 cells/well). After 24 hrs, 50 μL of Y strain tissue culture-derived trypomastigotes were used to infect the host cells at a density of 7.5 x 10^5/mL (3.75 x 10^4 parasites/well). The parasites were allowed to infect for a 24 hr period, after which compounds were added in a volume of 50 μL. […] After 72 hrs of compound incubation, the wells were fixed with 4% paraformaldehyde for 15 to 30 mins. The plates were then washed once with deionized water and stained with a solution of DAPI (3 μM) for 1 hour. Plates were imaged in an INCell 2000 (GE Healthcare) high-content analyser by taking 16 pictures per well at 20 X objective amplification. Images were analysed with INCell Developer software (GE Healthcare) using the segmentation of host cell nuclei and parasite kinetoplast DNA. The measurement output used was the average number of parasites per cell calculated by the ratio of host cell nuclei/parasite kinetoplast DNA.
In this assay, the compounds are incubated for 72 hours with cells previously infected with wild-type trypomastigotes for 24 hours. The readout was done by comparing the average number of amastigotes per cell that developed by the end of the incubation period. The quality of the assay was statistically evaluated by the calculation of the z-factor [75], that represents the reliability of the assay in distinguishing positive controls confidently from negative controls. Varying from 0 to 1, z-factor values higher than 0.5 are considered acceptable for drug screening. The z-factor obtained was 0.68, validating the use of the assay (S3B Fig).

[2] = target: TcSir2rp1 (Trypanosoma cruzi, UniProt Q4DVL9); assay: TcSir2rp1 NAD+-dependent deacetylase fluorimetric assay (CycLex kit); format: biochemical
Procedure: The deacetylase activity was measured using the commercial SIRT1/Sir2 Deacetylase Fluorometric Assay Kit (CycLex,Japan) according to the manufacturer’s recommendations. Briefly, fluorescence emission after digestion of deacetylated substrates by a lysine specific endopeptidase was measured in a fluorometric plate reader (Synergy HT, BioTek) with excitation and emission wavelengths set at 340 and 440 nm, respectively, every 30 seconds for 1 hour. The slope of the linear part of the reaction was calculated and used as readout of enzyme activity. […]
(§1) A variety of the bisnaphthalimidopropyl (BNIPs) derivatives, as well as the newly synthetized derivatives were evaluated as potential TcSir2rp1 inhibitors. The enzymatic reactions were performed using a commercially available CycLex SIRT1/Sir2 deacetylase fluorimetric kit (CycLex Co. Ltd., Nagano, Japan) in the absence and presence of the various inhibitors, 200 μM NAD^+ and 10 μM of peptide substrate as previously described.
as §1, with “µM” for “μM”

[3] = target: T1, LiSir2rp1 (Leishmania infantum, UniProt A0A6L0XH39); assay: LiSir2rp1 deacetylase inhibition; format: biochemical
T1 construct: made in house
Procedure: (§2) T. brucei Sir2rp1 (accession number: AAX70528.1) tagged with a C-terminal hexahistidine was expressed and characterized essentiality as described previously L. infantum Sir2rp1 was expressed and purified as previously described.
(§3) The deacetylase activity was measured using the commercial SIRT1/Sir2 Deacetylase Fluorometric Assay Kit (CycLex,Japan) according to the manufacturer’s recommendations. Briefly, fluorescence emission after digestion of deacetylated substrates by a lysine specific endopeptidase was measured in a fluorometric plate reader (Synergy HT, BioTek) with excitation and emission wavelengths set at 340 and 440 nm, respectively, every 30 seconds for 1 hour. The slope of the linear part of the reaction was calculated and used as readout of enzyme activity.

[4] = test system: Plasmodium falciparum Sir2A; design: method as in PMID 19937668, PMID 18221799; details: previously described; ref [46], [72]; cited from earlier work
[5] = target: T2, human SIRT1 (Homo sapiens, UniProt Q96EB6); assay: hSIRT1 deacetylase inhibition (CycLex kit); format: biochemical; details: 200 μM
T2 sequence (Q96EB6 1-747): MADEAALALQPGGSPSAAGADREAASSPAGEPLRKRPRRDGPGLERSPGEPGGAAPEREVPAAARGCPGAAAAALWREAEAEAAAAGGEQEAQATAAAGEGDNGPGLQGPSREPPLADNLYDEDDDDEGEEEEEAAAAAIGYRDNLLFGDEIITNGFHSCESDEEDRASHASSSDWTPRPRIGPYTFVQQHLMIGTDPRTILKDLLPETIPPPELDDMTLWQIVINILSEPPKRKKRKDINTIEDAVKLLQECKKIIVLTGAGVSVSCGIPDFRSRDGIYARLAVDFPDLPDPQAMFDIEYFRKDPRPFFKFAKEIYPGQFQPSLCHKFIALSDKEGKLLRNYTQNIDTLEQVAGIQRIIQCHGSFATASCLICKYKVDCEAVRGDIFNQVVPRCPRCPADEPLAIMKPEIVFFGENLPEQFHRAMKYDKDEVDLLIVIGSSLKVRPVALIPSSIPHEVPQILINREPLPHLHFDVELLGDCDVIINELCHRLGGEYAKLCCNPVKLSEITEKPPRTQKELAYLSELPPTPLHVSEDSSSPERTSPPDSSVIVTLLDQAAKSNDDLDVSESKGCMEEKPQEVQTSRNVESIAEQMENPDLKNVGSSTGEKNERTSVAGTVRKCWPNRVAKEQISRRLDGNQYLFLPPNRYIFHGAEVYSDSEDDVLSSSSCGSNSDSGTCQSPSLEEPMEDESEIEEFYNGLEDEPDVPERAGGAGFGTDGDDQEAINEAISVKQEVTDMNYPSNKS

[6] = target: T3, TbSir2rp1 (Trypanosoma brucei brucei, UniProt Q57V41); assay: TbSir2rp1 deacetylase inhibition; format: biochemical
T3 construct: hexahistidine (C); made in house
Procedure: as §2, §3

TcSir2rp1, sequence (Q4DVL9 entry or part of it): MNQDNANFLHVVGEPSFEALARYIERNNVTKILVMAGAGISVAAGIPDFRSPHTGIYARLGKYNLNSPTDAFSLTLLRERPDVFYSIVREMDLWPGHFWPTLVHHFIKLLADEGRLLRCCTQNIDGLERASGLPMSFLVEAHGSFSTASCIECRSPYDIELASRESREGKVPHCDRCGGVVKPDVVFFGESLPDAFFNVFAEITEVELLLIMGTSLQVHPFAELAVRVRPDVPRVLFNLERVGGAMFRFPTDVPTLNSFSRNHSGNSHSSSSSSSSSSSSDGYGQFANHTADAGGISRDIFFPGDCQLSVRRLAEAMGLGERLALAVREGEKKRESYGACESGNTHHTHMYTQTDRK
T1 sequence (A0A6L0XH39 entry or part of it): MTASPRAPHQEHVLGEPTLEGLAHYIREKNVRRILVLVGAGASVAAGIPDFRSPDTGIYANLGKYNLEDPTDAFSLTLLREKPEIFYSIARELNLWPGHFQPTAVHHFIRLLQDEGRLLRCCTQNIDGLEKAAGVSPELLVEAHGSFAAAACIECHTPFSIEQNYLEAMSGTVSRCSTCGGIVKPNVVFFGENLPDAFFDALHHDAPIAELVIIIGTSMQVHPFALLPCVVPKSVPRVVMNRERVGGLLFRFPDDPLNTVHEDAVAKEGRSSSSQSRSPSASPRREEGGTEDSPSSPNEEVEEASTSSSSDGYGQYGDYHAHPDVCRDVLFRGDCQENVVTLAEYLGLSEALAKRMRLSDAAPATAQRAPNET
T3 sequence (Q57V41 whole entry): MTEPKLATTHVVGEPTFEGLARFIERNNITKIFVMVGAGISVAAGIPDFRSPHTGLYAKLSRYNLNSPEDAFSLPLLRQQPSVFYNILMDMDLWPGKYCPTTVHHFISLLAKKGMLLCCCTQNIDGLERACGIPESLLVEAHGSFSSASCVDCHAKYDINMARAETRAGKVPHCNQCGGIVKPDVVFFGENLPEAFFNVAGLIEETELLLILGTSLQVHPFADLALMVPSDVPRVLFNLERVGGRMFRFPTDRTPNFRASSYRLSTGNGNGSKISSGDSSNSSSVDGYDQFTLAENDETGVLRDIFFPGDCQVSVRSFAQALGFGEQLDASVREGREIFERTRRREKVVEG

NC(=O)c1cccnc1 [Nicotinamide, nicotinamide, reference compound]
Activity in the amastigote assay [1]: no amastigote anti-parasitic activity was detected | IC50 ([2]; 10 μM Ac-peptide and 200 μM NAD+, read-out: IC50 of TcSir2rp1 inhibition): 456 ± 44 µM | inhibition at 200 µM ([2]; 200 μM): 34 ± 1% | inhibition at 200 µM [3]: 82% | IC50 [4]: 51.2 ± 3 µM | inhibition at 200 µM [5]: 66 ± 10% | inhibition at 200 µM [6]: 70 ± 5%
